Values belong to the compound of their own block, whether it stands above or below them.
Tested on: LG0703-F948-PDC complex spheroid viability
Assay: Anticancer human tumor LG0703-F948-PDC patient-derived lung adenocarcinoma cell line growth inhibition [RAS]
Details: for IC50: curve of first compound; for viability, T/C: stronger effect = lower value
In short: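 Agents were tested in combination matrices in half-log decrements from a top concentration at or near clinical Cmax (10 microM if undetermined). Targets were multi-cell spheroids of tumour lines plus HUVEC and MSC stromal cells.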

[1] = second compound 0.00316 µM, first compound 0.00316 µM
[2] = second compound 0.00316 µM, first compound 0.01 µM
[3] = second compound 0.00316 µM, first compound 0.0316 µM
[4] = second compound 0.00316 µM, first compound 0.1 µM
[5] = second compound 0.00316 µM, first compound 0.316 µM
[6] = second compound 0.00316 µM, first compound 1 µM
[7] = second compound 0.01 µM, first compound 0.00316 µM
[8] = second compound 0.01 µM, first compound 0.01 µM
[9] = second compound 0.01 µM, first compound 0.0316 µM
[10] = second compound 0.01 µM, first compound 0.1 µM
[11] = second compound 0.01 µM, first compound 0.316 µM
[12] = second compound 0.01 µM, first compound 1 µM
[13] = second compound 0.0316 µM, first compound 0.00316 µM
[14] = second compound 0.0316 µM, first compound 0.01 µM
[15] = second compound 0.0316 µM, first compound 0.0316 µM
[16] = second compound 0.0316 µM, first compound 0.1 µM
[17] = second compound 0.0316 µM, first compound 0.316 µM
[18] = second compound 0.0316 µM, first compound 1 µM
[19] = second compound 0.1 µM, first compound 0.00316 µM
[20] = second compound 0.1 µM, first compound 0.01 µM
[21] = second compound 0.1 µM, first compound 0.0316 µM
[22] = second compound 0.1 µM, first compound 0.1 µM
[23] = second compound 0.1 µM, first compound 0.316 µM
[24] = second compound 0.1 µM, first compound 1 µM
[25] = second compound 0.316 µM, first compound 0.00316 µM
[26] = second compound 0.316 µM, first compound 0.01 µM
[27] = second compound 0.316 µM, first compound 0.0316 µM
[28] = second compound 0.316 µM, first compound 0.1 µM
[29] = second compound 0.316 µM, first compound 0.316 µM
[30] = second compound 0.316 µM, first compound 1 µM
[31] = second compound 1 µM, first compound 0.00316 µM
[32] = second compound 1 µM, first compound 0.01 µM
[33] = second compound 1 µM, first compound 0.0316 µM
[34] = second compound 1 µM, first compound 0.1 µM
[35] = second compound 1 µM, first compound 0.316 µM
[36] = second compound 1 µM, first compound 1 µM
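Further: spheroids exposed to agents for 7 days.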
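Wherever viability, T/C is given: 100% = DMSO vehicle wells.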

IC50 (second compound 0.00316 µM): 7.32 nM | IC50 (second compound 0.01 µM): 7.97 nM | IC50 (second compound 0.0316 µM): 8.46 nM | IC50 (second compound 0.1 µM): 8.29 nM | IC50 (second compound 0.316 µM): 7.93 nM | IC50 (second compound 1 µM): 8.3 nM
SMILES: C=CC(=O)Nc1cc(Nc2nccc(-c3cn(C)c4ccccc34)n2)c(OC)cc1N(C)CCN(C)C + C=CC(=O)N1CCN(c2nc(OCC3CCCN3C)nc3c(F)c(-c4nc(N)cc(C)c4C(F)(F)F)c(Cl)cc23)C(C)C1
viability, T/C [1]: 75.2% | viability, T/C [2]: 40.8% | viability, T/C [3]: 16.2% | viability, T/C [4]: 14.6% | viability, T/C [5]: 10.9% | viability, T/C [6]: 8.91% | viability, T/C [7]: 79.8% | viability, T/C [8]: 42.7% | viability, T/C [9]: 16.9% | viability, T/C [10]: 9.65% | viability, T/C [11]: 8.46% | viability, T/C [12]: 7.04% | viability, T/C [13]: 79.7% | viability, T/C [14]: 45% | viability, T/C [15]: 16.2% | viability, T/C [16]: 10.3% | viability, T/C [17]: 10.2% | viability, T/C [18]: 6.08% | viability, T/C [19]: 86.3% | viability, T/C [20]: 43% | viability, T/C [21]: 14.8% | viability, T/C [22]: 10.8% | viability, T/C [23]: 9.54% | viability, T/C [24]: 6.22% | viability, T/C [25]: 79.2% | viability, T/C [26]: 42.7% | viability, T/C [27]: 17.4% | viability, T/C [28]: 9.84% | viability, T/C [29]: 9.21% | viability, T/C [30]: 6.05% | viability, T/C [31]: 79.5% | viability, T/C [32]: 44.5% | viability, T/C [33]: 15.7% | viability, T/C [34]: 10.2% | viability, T/C [35]: 9.74% | viability, T/C [36]: 5.04%

IC50 (second compound 0.00316 µM): 4.92 nM | IC50 (second compound 0.01 µM): 4.93 nM | IC50 (second compound 0.0316 µM): 5.48 nM | IC50 (second compound 0.1 µM): 5.32 nM | IC50 (second compound 0.316 µM): 5.96 nM | IC50 (second compound 1 µM): 5.85 nM
SMILES: Nc1ccn(C2OC(CO)C(O)C2(F)F)c(=O)n1 (stereo unspecified) + C=CC(=O)N1CCN(c2nc(OCC3CCCN3C)nc3c(F)c(-c4nc(N)cc(C)c4C(F)(F)F)c(Cl)cc23)C(C)C1
viability, T/C [1]: 57.6% | viability, T/C [2]: 38.4% | viability, T/C [3]: 27.3% | viability, T/C [4]: 28.2% | viability, T/C [5]: 29.4% | viability, T/C [6]: 6.7% | viability, T/C [7]: 58.7% | viability, T/C [8]: 36.9% | viability, T/C [9]: 25.1% | viability, T/C [10]: 25.1% | viability, T/C [11]: 24.6% | viability, T/C [12]: 21.7% | viability, T/C [13]: 61.6% | viability, T/C [14]: 36.7% | viability, T/C [15]: 30.1% | viability, T/C [16]: 24% | viability, T/C [17]: 24.1% | viability, T/C [18]: 23.3% | viability, T/C [19]: 62.1% | viability, T/C [20]: 35.4% | viability, T/C [21]: 26.8% | viability, T/C [22]: 26.3% | viability, T/C [23]: 26.8% | viability, T/C [24]: 22.7% | viability, T/C [25]: 74.2% | viability, T/C [26]: 30% | viability, T/C [27]: 29.9% | viability, T/C [28]: 25.3% | viability, T/C [29]: 27.1% | viability, T/C [30]: 29.1% | viability, T/C [31]: 63% | viability, T/C [32]: 38.3% | viability, T/C [33]: 29% | viability, T/C [34]: 30.1% | viability, T/C [35]: 25.2% | viability, T/C [36]: 21.4%

IC50 (second compound 0.000949 µM): 68.2 nM | IC50 (second compound 0.003 µM): < 0.949 nM | IC50 (second compound 0.00949 µM): < 0.949 nM | IC50 (second compound 0.03 µM): < 0.949 nM | IC50 (second compound 0.0949 µM): < 0.949 nM | IC50 (second compound 0.3 µM): < 0.949 nM
SMILES: CCc1c2c(nc3ccc(O)cc13)-c1cc3c(c(=O)n1C2)COC(=O)[C@]3(O)CC + CCn1c(-c2cc(N3CCN(C)CC3)cnc2C(C)OC)c2c3cc(ccc31)-c1csc(n1)CC(NC(=O)C1CC1C)C(=O)N1CCCC(N1)C(=O)OCC(C)(C)C2
viability, T/C (second compound 0.000949 µM, first compound 0.000949 µM): 74.3% | viability, T/C (second compound 0.000949 µM, first compound 0.003 µM): 84.5% | viability, T/C (second compound 0.000949 µM, first compound 0.00949 µM): 54.4% | viability, T/C (second compound 0.000949 µM, first compound 0.03 µM): 62% | viability, T/C (second compound 0.000949 µM, first compound 0.0949 µM): 49.7% | viability, T/C (second compound 0.000949 µM, first compound 0.3 µM): 24.4% | viability, T/C (second compound 0.003 µM, first compound 0.000949 µM): 46.3% | viability, T/C (second compound 0.003 µM, first compound 0.003 µM): 44.4% | viability, T/C (second compound 0.003 µM, first compound 0.00949 µM): 46% | viability, T/C (second compound 0.003 µM, first compound 0.03 µM): 40.1% | viability, T/C (second compound 0.003 µM, first compound 0.0949 µM): 31.9% | viability, T/C (second compound 0.003 µM, first compound 0.3 µM): 20% | viability, T/C (second compound 0.00949 µM, first compound 0.000949 µM): 25.6% | viability, T/C (second compound 0.00949 µM, first compound 0.003 µM): 19% | viability, T/C (second compound 0.00949 µM, first compound 0.00949 µM): 19.7% | viability, T/C (second compound 0.00949 µM, first compound 0.03 µM): 17% | viability, T/C (second compound 0.00949 µM, first compound 0.0949 µM): 17.2% | viability, T/C (second compound 0.00949 µM, first compound 0.3 µM): 11.3% | viability, T/C (second compound 0.03 µM, first compound 0.000949 µM): 13.3% | viability, T/C (second compound 0.03 µM, first compound 0.003 µM): 17.8% | viability, T/C (second compound 0.03 µM, first compound 0.00949 µM): 13.5% | viability, T/C (second compound 0.03 µM, first compound 0.03 µM): 15.7% | viability, T/C (second compound 0.03 µM, first compound 0.0949 µM): 10.4% | viability, T/C (second compound 0.03 µM, first compound 0.3 µM): 9.39% | viability, T/C (second compound 0.0949 µM, first compound 0.000949 µM): 14.1% | viability, T/C (second compound 0.0949 µM, first compound 0.003 µM): 12.5% | viability, T/C (second compound 0.0949 µM, first compound 0.00949 µM): 9.68% | viability, T/C (second compound 0.0949 µM, first compound 0.03 µM): 9.08% | viability, T/C (second compound 0.0949 µM, first compound 0.0949 µM): 12.3% | viability, T/C (second compound 0.0949 µM, first compound 0.3 µM): 9.68% | viability, T/C (second compound 0.3 µM, first compound 0.000949 µM): 11.7% | viability, T/C (second compound 0.3 µM, first compound 0.003 µM): 9.88% | viability, T/C (second compound 0.3 µM, first compound 0.00949 µM): 8.36% | viability, T/C (second compound 0.3 µM, first compound 0.03 µM): 8.45% | viability, T/C (second compound 0.3 µM, first compound 0.0949 µM): 7.32% | viability, T/C (second compound 0.3 µM, first compound 0.3 µM): 4.88%

Reference: PubChem BioAssay AID2060890 (Molecular Pharmacology Branch, DTP, NCI, 2025)
